This note sets out measurements from paper PMC8820820, “Feasibility and safety of targeting mitochondria for cancer therapy – preclinical characterization of gamitrinib, a first-in-class, mitochondriaL-targeted small molecule Hsp90 inhibitor” (Cancer Biology & Therapy, 2022).

Molecules are shown by their SMILES.

Data set [1] in a line: Gamitrinib pharmacokinetics in rat plasma, single IV dose. Format: in vivo, Sprague-Dawley rats. The note with it: after IV Gamitrinib 5 mg/kg. How it is done: Sprague-Dawley rats (n = 3) were administered with a single intravenous (IV) dose of 1 mL Gamitrinib (5 mg/kg) formulated as described above without added microfluidization. Blood samples were collected via lateral tail vein using K2EDTA as an anticoagulant at 0.083, 0.25, 0.5, 1, 2, 4, and 24 h post-dose, chilled on ice, and centrifuged at 5000 rpm for 10 min. Aliquots (0.2 mL) of each plasma sample were stored frozen at −20°C. For analysis, 50 µL aliquots of the study samples were mixed with 50 µL of ACN/H2O (50:50), extracted by protein precipitation using ACN containing the internal standard Gamitrinib-d15 (100 ng/mL), and the aliquots of the supernatant were mixed with deionized water for Gamitrinib determination. Batch samples under analysis included a calibration curve, a matrix blank (blank rat plasma), a reagent blank, a control zero (blank rat plasma spiked with internal standard), and duplicate QC samples at three concentration levels (low, medium, and high) in addition to the study samples. Within each batch, the study samples were bracketed by calibration standards or QC samples. The lowest calibration standard served to evaluate system suitability at the beginning of each batch. […] Overall, the concentration of Gamitrinib was measured in 21 rat plasma samples in 1 analytical batch using LC-MS/MS data acquisition on a Shimadzu Nexera LC system coupled with an AB Sciex Triple Quad 5500 mass spectrometer. Chromatograms were integrated using Analyst 1.6.2 software. A weighted (1/x^2, x = concentration) linear regression was used to generate the calibration curve for Gamitrinib. […] The mean, standard deviation, precision, accuracy, and assay variability were calculated using Microsoft Excel.

Data set [2] in a line: Bidirectional Caco2 cell monolayer permeability. The note with it: human. How it is done:
Caco-2 and HEK293 cells were obtained from the American Type Culture Collection (ATCC, Manassas, VA) and grown in culture according to the supplier’s specifications. In some experiments, HEK293 cells were stably transfected with hERG cDNA, and polyclonal cultures were maintained in the presence of 250 µg/ml geneticin (G418).
Bidirectional Caco2 cell monolayer permeability. Caco2 cells (2x10^4/well) were seeded onto apical chambers of a 24-multiwell insert plate and incubated at 37°C in 5% CO2. After 21 d, the transepithelial electrical resistance (TEER) in ohms was read for each insert well as a quality control for monolayer integrity (>900 ohms or 300 ohms cm^2). The cell monolayers were incubated with 400 µL transport buffer on the apical (A) and 1.2 mL on the basolateral (B) sides for 30 min. After preincubation, dosing solution was added to the apical (400 µL, A-to-B, donor) or basolateral sides (1.2 mL, B-to-A, donor) or receiving buffer to the apical (400 µL, B-to-A, receiver) or basolateral sides (1.2 mL, A-to-B, receiver) for 90 min at 37°C in 5% CO2. […] Papp’A>B (nm/s) was calculated with Equation 1.
Papp Efflux Ratio (ER) was calculated with Equation 2.
ER=Papp,B>APapp,A>BEquation 2: […]
Propranolol (high permeability marker, non-P-gp substate) and digoxin (P-gp substrate) were used as controls.

Data set [3] can be described thus: Phase I, cytochrome P450-mediated human liver microsome metabolism. (Microsomes from liver hold many membrane-bound enzymes, among them those of drug oxidation.)
A further data set is described as follows: in vitro. Particulars: human.
Setting [4] is: Caco-2, Papp Efflux Ratio (ER), Papp,B>A / Papp,A>B.
Where [5] appears, read: Caco-2, Papp, A>B, Caco2 monolayer, apical to basolateral.
Where [6] appears, read: Caco-2, Papp, B>A, Caco2 monolayer, basolateral to apical.
The mark [7] stands for this setting: Caco-2, Pexact Efflux Ratio, Caco2 monolayer.
The mark [8] stands for this setting: Caco-2, Pexact,A>B, Caco2 monolayer.
The mark [9] stands for this setting: Caco-2, Pexact,B>A, Caco2 monolayer.

As for `CO[C@H]1/C=C\C=C(/C)C(=O)NC2=CC(=O)C(N)=C(C[C@@H](C)C[C@H](OC)[C@H](O)[C@@H](C)/C=C(\C)[C@@H]1OC(N)=O)C2=O` [17-AG, 17-(amino)-17-demethoxygeldanamycin], the 17-AG plasma concentration entry in data set [1] (animal 1, 5 min) is on record as “BLOQ”; in data set [1] (animal 1, 15 min) it was 0.561 ng/mL; in data set [1] (animal 1, 30 min), “BLOQ”; in data set [1] (animal 1, 60 min), “BLOQ”; in data set [1] (animal 1, 120 min), “BLOQ”; in data set [1] (animal 1, 240 min), “BLOQ”. In addition, the 17-AG plasma concentration result in data set [1] (animal 1, 1440 min) is listed as “BLOQ”; in data set [1] (animal 2, 5 min) it was 1.519 ng/mL; in data set [1] (animal 2, 15 min), “BLOQ”; in data set [1] (animal 2, 30 min), “BLOQ”; in data set [1] (animal 2, 60 min) it was “BLOQ”; in data set [1] (animal 2, 120 min) it was “BLOQ”. In addition, the 17-AG plasma concentration entry is “BLOQ” in data set [1] (animal 2, 240 min); “BLOQ” in data set [1] (animal 2, 1440 min); 1.113 ng/mL in data set [1] (animal 3, 5 min); “BLOQ” in data set [1] (animal 3, 15 min); “BLOQ” in data set [1] (animal 3, 30 min); “BLOQ” in data set [1] (animal 3, 60 min). The 17-AG plasma concentration entry is recorded as “BLOQ” in data set [1] (animal 3, 120 min); “BLOQ” in data set [1] (animal 3, 240 min); “BLOQ” in data set [1] (animal 3, 1440 min).

As a reminder, the efflux ratio is the permeability from basolateral to apical divided by that in the opposite direction, in the common usage. In general, Papp A→B refers to the apparent permeability from the apical to the basolateral side of a cell layer. As a reminder, the Papp B→A is how fast a substance crosses the layer from the basolateral side. With `C[C@H]1O[C@@H](O[C@H]2[C@@H](O)C[C@H](O[C@H]3[C@@H](O)C[C@H](O[C@H]4CC[C@@]5(C)[C@H](CC[C@@H]6[C@@H]5C[C@@H](O)[C@]5(C)[C@@H](C7=CC(=O)OC7)CC[C@]65O)C4)O[C@@H]3C)O[C@@H]2C)C[C@H](O)[C@@H]1O` [Digoxin], the efflux ratio at 90 min turned out to be 21 in data set [2] (setting [4]) and 21.2 in data set [2] (setting [7]). In addition, the Papp A→B at 90 min is 0.547 ×10⁻⁶ cm/s in data set [2] (setting [5]) and 0.413 ×10⁻⁶ cm/s in data set [2] (setting [8]). In addition, the Papp B→A at 90 min in data set [2] (setting [6]) was determined as 11.5 ×10⁻⁶ cm/s; in data set [2] (setting [9]), 8.76 ×10⁻⁶ cm/s.

As usually defined, the half-life is the time needed for the level to fall by half in the phase considered. `Cc1ncc2n1-c1ccc(Cl)cc1C(c1ccccc1F)=NC2` [Midazolam, reference compound]: in data set [3] (0.5 µM, human liver microsomes), the “elimination rate constant (k)” value came to 0.04 and the “intrinsic clearance (CLint)” value amounted to 3.23 mL/min/g. This compound also gave a half-life at 0.5 µM in data set [3] (human, liver microsomes) of 17 min.

In the case of `CC(C)NCC(O)COc1cccc2ccccc12` (stereo not shown) [Propranolol], the efflux ratio at 90 min in data set [2] (setting [4]) worked out at 0.87; in data set [2] (setting [7]), 0.81. Besides, the figures for the Papp A→B at 90 min in data set [2] (setting [5]) and in data set [2] (setting [8]) were 18.6 ×10⁻⁶ cm/s and 20.9 ×10⁻⁶ cm/s, respectively. Besides, the results for the Papp B→A at 90 min in data set [2] (setting [6]) and in data set [2] (setting [9]) were 16.2 ×10⁻⁶ cm/s and 17 ×10⁻⁶ cm/s, respectively.

Take `CC(=O)CC(c1ccccc1)c1c(O)c2ccccc2oc1=O` (stereo not shown) [warfarin]: the recovery at 4 h, 2 µg/mL in “in vitro” was 88.3 ± 2.9%.
